One may read the melting point as the temperature, or range, at which the solid turns liquid.

Turning to `O=C(Nc1nc(-c2ccco2)c(C(=O)C2CCOCC2)s1)c1ccoc1` [Compound 516, N-[4-(2-Furyl)-5-(tetrahydropyran-4-ylcarbonyl)thiazol-2-yl]furan-3-carboxamide], the melting point fell in the range of 236 to 238 °C. Consider `O=C(Nc1nc(-c2ccco2)c(C(=O)C2CCOCC2)s1)c1cccs1` [Compound 517, N-[4-(2-Furyl)-5-(tetrahydropyran-4-ylcarbonyl)thiazol-2-yl]thiophene-2-carboxamide], for which the melting point was 231 to 232 °C.

`O=C(Nc1nc(-c2ccco2)c(C(=O)C2CCOCC2)s1)c1ccsc1` [Compound 518, N-[4-(2-Furyl)-5-(tetrahydropyran-4-ylcarbonyl)thiazol-2-yl]thiophene-3-carboxamide] registered a melting point of 227 to 229 °C. The figure for `Cn1cc(C(=O)Nc2nc(-c3ccco3)c(C(=O)C3CCOCC3)s2)cn1` [Compound 519, N-[4-(2-Furyl)-5-(tetrahydropyran-4-ylcarbonyl)thiazol-2-yl]-1-methylpyrazole-4-carboxamide] is 243 to 247 °C; for `CCn1cc(C(=O)Nc2nc(-c3ccco3)c(C(=O)C3CCOCC3)s2)cn1` [Compound 520, 1-Ethyl-N-[4-(2-furyl)-5-(tetrahydropyran-4-ylcarbonyl)thiazol-2-yl]pyrazole-4-carboxamide] it is 170 to 174 °C; for `O=C(Nc1nc(-c2ccco2)c(C(=O)C2CCOCC2)s1)c1cnn(-c2ccccc2)c1` [Compound 521, N-[4-(2-Furyl)-5-(tetrahydropyran-4-ylcarbonyl)thiazol-2-yl]-1-phenylpyrazole-4-carboxamide] it is 217 to 220 °C. In turn, `O=C(c1sc(NC(=O)C2CCCO2)nc1-c1ccco1)C1CCOCC1` (centres unmarked) [Compound 523, N-[4-(2-Furyl)-5-(tetrahydropyran-4-ylcarbonyl)thiazol-2-yl]tetrahydrofuran-2-carboxamide] came in with a melting point of 115 to 117 °C. On to `O=C(Nc1nc(-c2ccco2)c(C(=O)C2CCOCC2)s1)C1CCOC1` (centres unmarked) [Compound 524, N-[4-(2-Furyl)-5-(tetrahydropyran-4-ylcarbonyl)thiazol-2-yl]tetrahydrofuran-3-carboxamide], for which the melting point fell in the range of 164 to 166 °C. The figure for `O=C(CC1CCOCC1)Nc1nc(-c2ccco2)c(C(=O)C2CCOCC2)s1` [Compound 525, N-[4-(2-Furyl)-5-(tetrahydropyran-4-ylcarbonyl)thiazol-2-yl]-2-(tetrahydropyran-4-yl)acetamide] is 206 to 209 °C; for `O=C(Cc1ccccc1)Nc1nc(-c2ccco2)c(C(=O)C2CCOCC2)s1` [Compound 526, N-[4-(2-Furyl)-5-(tetrahydropyran-4-ylcarbonyl)thiazol-2-yl]-2-phenylacetamide] it is 140 to 142 °C; for `O=C(CCc1ccccc1)Nc1nc(-c2ccco2)c(C(=O)C2CCOCC2)s1` [Compound 527, N-[4-(2-Furyl)-5-(tetrahydropyran-4-ylcarbonyl)thiazol-2-yl]-3-phenylpropanamide] it is 161 to 164 °C. Take `O=C(C=Cc1ccccc1)Nc1nc(-c2ccco2)c(C(=O)C2CCOCC2)s1` [Compound 528, N-[4-(2-Furyl)-5-(tetrahydropyran-4-ylcarbonyl)thiazol-2-yl]-3-phenylacrylamide]: the melting point was in the range of 253 to 256 °C.

Compound `O=C(COc1ccccc1)Nc1nc(-c2ccco2)c(C(=O)C2CCOCC2)s1` [Compound 529, N-[4-(2-Furyl)-5-(tetrahydropyran-4-ylcarbonyl)thiazol-2-yl]-2-phenoxyacetamide] yielded a melting point of 148 to 150 °C. `COCC(=O)Nc1nc(-c2ccco2)c(C(=O)C2CCOCC2)s1` [Compound 530, N-[4-(2-Furyl)-5-(tetrahydropyran-4-ylcarbonyl)thiazol-2-yl]-2-methoxyacetamide] returned a melting point of 148 to 149 °C.

`CCOCC(=O)Nc1nc(-c2ccco2)c(C(=O)C2CCOCC2)s1` [Compound 532, 2-Ethoxy-N-[4-(2-furyl)-5-(tetrahydropyran-4-ylcarbonyl)thiazol-2-yl]acetamide] registered a melting point of 121 to 126 °C. With `CN(C)CC(=O)Nc1nc(-c2ccco2)c(C(=O)C2CCOCC2)s1` [Compound 533, 2-(Dimethylamino)-N-[4-(2-furyl)-5-(tetrahydropyran-4-ylcarbonyl)thiazol-2-yl]acetamide] the figure was 129 to 130 °C. The figure for `COCCN(C)CC(=O)Nc1nc(-c2ccco2)c(C(=O)C2CCOCC2)s1` [Compound 534, N-[4-(2-Furyl)-5-(tetrahydropyran-4-ylcarbonyl)thiazol-2-yl]-2-[N-(2-methoxyethyl)-N-methylamino]acetamide] is 103 to 105 °C; for `O=C(CN1CCCC1)Nc1nc(-c2ccco2)c(C(=O)C2CCOCC2)s1` [Compound 536, N-[4-(2-Furyl)-5-(tetrahydropyran-4-ylcarbonyl)thiazol-2-yl]-2-(1-pyrrolidinyl)acetamide] it is 115 to 117 °C. `COC[C@H]1CCCN1CC(=O)Nc1nc(-c2ccco2)c(C(=O)C2CCOCC2)s1` [Compound 537, N-[4-(2-Furyl)-5-(tetrahydropyran-4-ylcarbonyl)thiazol-2-yl]-2-[(2R)-2-(methoxymethyl)pyrrolidin-1-yl]acetamide]: the melting point is 103 to 104 °C. For `O=C(CN1CCCCC1)Nc1nc(-c2ccco2)c(C(=O)C2CCOCC2)s1` [Compound 542, N-[4-(2-Furyl)-5-(tetrahydropyran-4-ylcarbonyl)thiazol-2-yl]-2-piperidinoacetamide], the melting point was in the range of 146 to 147 °C. In the case of `O=C(CN1CCC(O)CC1)Nc1nc(-c2ccco2)c(C(=O)C2CCOCC2)s1` [Compound 543, N-[4-(2-Furyl)-5-(tetrahydropyran-4-ylcarbonyl)thiazol-2-yl]-2-(4-hydroxypiperidino)acetamide], the melting point was 178 to 180 °C.

Consider `COC1CCN(CC(=O)Nc2nc(-c3ccco3)c(C(=O)C3CCOCC3)s2)CC1` [Compound 545, N-[4-(2-Furyl)-5-(tetrahydropyran-4-ylcarbonyl)thiazol-2-yl]-2-(4-methoxypiperidino)acetamide], for which the melting point fell in the range of 109 to 111 °C. The figure for `CC1(O)CCN(CC(=O)Nc2nc(-c3ccco3)c(C(=O)C3CCOCC3)s2)CC1` [Compound 546, N-[4-(2-Furyl)-5-(tetrahydropyran-4-ylcarbonyl)thiazol-2-yl]-2-(4-hydroxy-4-methylpiperidino)acetamide] is 151 to 153 °C; for `O=C(CN1CCC(N2CCCC2)CC1)Nc1nc(-c2ccco2)c(C(=O)C2CCOCC2)s1` [Compound 551, N-[4-(2-Furyl)-5-(tetrahydropyran-4-ylcarbonyl)thiazol-2-yl]-2-[4-(1-pyrrolidinyl)piperidino]acetamide] it is 183 to 184 °C; for `O=C(CN1CCC(N2CCCCC2)CC1)Nc1nc(-c2ccco2)c(C(=O)C2CCOCC2)s1` [Compound 552, N-[4-(2-Furyl)-5-(tetrahydropyran-4-ylcarbonyl)thiazol-2-yl]-2-(4-piperidinopiperidino)acetamide] it is 177 to 179 °C. With `O=C(CN1CCC(N2CCOCC2)CC1)Nc1nc(-c2ccco2)c(C(=O)C2CCOCC2)s1` [Compound 553, N-[4-(2-Furyl)-5-(tetrahydropyran-4-ylcarbonyl)thiazol-2-yl]-2-(4-morpholinopiperidino)acetamide] the figure was 193 to 195 °C.

Source of the values: patent US7718808B2, “Thiazole derivatives” (Kyowa Hakko Kirin Co., Ltd., priority 2003, dated 2010).
